Series [1] concerns the target MOR (Mus musculus, UniProt P42866). Kind of series: MOR [35S]GTPγS functional assay (MOR-CHO membranes). Details: expressed in transfected cells; host or cells: CHO. The note with it: Tables A, B. It is filed as biochemical. The method, then: The [^35S]GTPγS functional assay was conducted to determine the efficacy of the compounds at the MOR. […] The Bradford protein assay was utilized to determine and adjust the concentration of protein required for the assay. Nonspecific binding was determined with 20 μM unlabeled GTPγS. Furthermore, 3 μM DAMGO was included in the assay as the maximally effective concentration of a full agonist for the MOR. After incubation, the bound radioactive ligand was separated from the free radioligand by filtration through a GF/B glass fiber filter paper and rinsed three times with ice-cold wash buffer (50 mM Tris-HCl, pH 7.2) using the Brandel harvester. Bound radioactivity was determined by liquid scintillation counting. All assays were determined in duplicate and repeated at least three times. Net stimulated [^35S]GTPγS binding was defined as agonist-stimulated minus basal binding in the absence of agonist. Percent of DAMGO-stimulated [^35S]GTPγS binding was defined as (net-stimulated binding by ligand/net-stimulated binding by 3 μM DAMGO)×100%.
Results were reported as mean values ±SEM.
The [^35S]-GTPγS binding assay was carried out as well to determine the functionality on the MOR of each compound. […] The [^35S]GTPγS functional assay was conducted to determine the efficacy of the compounds at the MOR, KOR and DOR. […] The Bradford protein assay was utilized to determine and adjust the concentration of protein required for the assay. Nonspecific binding was determined with 20 μM unlabeled GTPγS. Furthermore, 3 μM DAMGO/U50488H/SNC80 was included in the assay as the maximally effective concentration of a full agonist for the MOR/KOR/DOR. After incubation, the bound radioactive ligand was separated from the free radioligand by filtration through a GF/B glass fiber filter paper using a Brandel harvester. Bound radioactivity was determined by liquid scintillation counting. All assays were determined in duplicate and repeated at least three times. Net stimulated [^35S]GTPγS binding was defined as agonist-stimulated minus basal binding in the absence of agonist. Percent of DAMGO/U50488H/SNC80 stimulated [^35S]GTPγS binding was defined as (net-stimulated binding by ligand/net-stimulated binding by 3 μM DAMGO U50488H/SNC80)×100%.

The nature of series [2]: AMES testing.
The subject of series [3] is self-administration rat model. The experiment in a line: Self-administration Studies, Food vs Drug (heroin choice). It is filed as in vivo.
Series [4] is described as follows: Metabolic Stability (half-life), human.
A short description of series [5]: Protein Binding (plasma), human.
Series [6] can be described thus: Metabolic Stability (half-life), rat.
The target in series [7] is KOR (Mus musculus, UniProt P33534). The experiment in a line: KOR [35S]GTPγS binding assay. It is filed as biochemical. Details: expressed in transfected cells; host or cells: CHO. The following applies: for Emax: read-out: 35S-GTP[γS]-Binding KOR Efficacy (% max of U50, 488H). The protocol: (§1) The [^35S]GTPγS functional assay was conducted to determine the efficacy of the compounds at the MOR, KOR and DOR. […] The Bradford protein assay was utilized to determine and adjust the concentration of protein required for the assay. Nonspecific binding was determined with 20 μM unlabeled GTPγS. Furthermore, 3 μM DAMGO/U50488H/SNC80 was included in the assay as the maximally effective concentration of a full agonist for the MOR/KOR/DOR. After incubation, the bound radioactive ligand was separated from the free radioligand by filtration through a GF/B glass fiber filter paper using a Brandel harvester. Bound radioactivity was determined by liquid scintillation counting. All assays were determined in duplicate and repeated at least three times. Net stimulated [^35S]GTPγS binding was defined as agonist-stimulated minus basal binding in the absence of agonist. Percent of DAMGO/U50488H/SNC80 stimulated [^35S]GTPγS binding was defined as (net-stimulated binding by ligand/net-stimulated binding by 3 μM DAMGO U50488H/SNC80)×100%.
Sequence of KOR (P33534 whole entry): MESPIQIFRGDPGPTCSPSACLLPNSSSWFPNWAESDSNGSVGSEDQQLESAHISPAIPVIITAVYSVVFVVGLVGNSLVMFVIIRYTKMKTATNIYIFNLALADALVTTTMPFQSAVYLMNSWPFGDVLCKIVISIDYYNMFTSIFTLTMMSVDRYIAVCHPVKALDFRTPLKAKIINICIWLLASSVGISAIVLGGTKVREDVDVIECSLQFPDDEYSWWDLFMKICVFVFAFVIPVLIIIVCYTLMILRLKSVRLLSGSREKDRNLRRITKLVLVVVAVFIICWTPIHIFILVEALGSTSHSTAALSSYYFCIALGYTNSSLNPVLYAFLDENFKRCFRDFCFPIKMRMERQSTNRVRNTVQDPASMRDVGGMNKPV

The target of series [8] is CYP2D6 (Homo sapiens, UniProt P10635). The experiment in a line: CYP450 enzyme testing, CYP2D6.
Sequence of CYP2D6 (P10635 whole entry): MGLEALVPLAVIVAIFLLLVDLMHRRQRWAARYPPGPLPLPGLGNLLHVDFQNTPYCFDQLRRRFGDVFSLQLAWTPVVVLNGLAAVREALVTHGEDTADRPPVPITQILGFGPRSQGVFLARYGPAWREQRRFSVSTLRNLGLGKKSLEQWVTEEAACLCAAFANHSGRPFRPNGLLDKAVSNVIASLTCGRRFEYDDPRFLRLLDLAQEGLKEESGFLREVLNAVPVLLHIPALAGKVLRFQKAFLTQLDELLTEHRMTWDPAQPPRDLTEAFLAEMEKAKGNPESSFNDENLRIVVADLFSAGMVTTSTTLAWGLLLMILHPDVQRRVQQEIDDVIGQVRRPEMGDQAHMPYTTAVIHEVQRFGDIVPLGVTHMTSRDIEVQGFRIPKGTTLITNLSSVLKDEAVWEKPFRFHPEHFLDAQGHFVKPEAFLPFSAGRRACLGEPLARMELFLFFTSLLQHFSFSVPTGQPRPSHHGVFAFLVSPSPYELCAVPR
The target of series [9] is T1, hM4 (Homo sapiens, UniProt P08173).
T1 sequence (P08173 1-479): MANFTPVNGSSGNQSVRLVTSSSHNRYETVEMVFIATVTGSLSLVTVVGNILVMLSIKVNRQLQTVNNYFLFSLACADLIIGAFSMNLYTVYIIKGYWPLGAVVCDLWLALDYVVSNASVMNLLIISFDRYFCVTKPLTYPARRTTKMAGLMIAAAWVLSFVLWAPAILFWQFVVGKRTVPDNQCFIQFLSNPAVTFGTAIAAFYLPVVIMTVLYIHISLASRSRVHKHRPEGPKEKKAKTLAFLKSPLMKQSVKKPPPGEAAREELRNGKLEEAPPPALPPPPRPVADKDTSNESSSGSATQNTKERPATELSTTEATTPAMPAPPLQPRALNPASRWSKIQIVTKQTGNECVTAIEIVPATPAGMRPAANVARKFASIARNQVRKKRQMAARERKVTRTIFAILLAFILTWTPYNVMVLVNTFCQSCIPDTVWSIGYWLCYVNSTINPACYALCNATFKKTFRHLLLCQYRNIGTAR
Kind of series: side effect profiling, hM4. It is filed as binding. The following applies: for hM4 binding: at 10 uM.

In series [10] the test system is morphine-pelleted mice. Kind of series: opioid withdrawal study in morphine-pelleted mice. The note with it: for Withdrawal study: wet-dog shakes, escape jumps, paw tremors: 1 mg/kg dose, compared to 1 mg/kg naloxone; for withdrawal symptoms (wet-dog shakes, escape jumps, paw tremors): 1 mg/kg s.c., compared to 1 mg/kg NLX; for withdrawal symptoms at higher doses: 5 mg/kg and above, s.c.

Series [11] is described as follows: solubility. The following applies: Tables A, B.
For series [12], the target named is T2, DOR (Homo sapiens, UniProt P41143).
T2 construct: expressed in transfected cells; host or cells: CHO
T2 sequence (P41143 whole entry): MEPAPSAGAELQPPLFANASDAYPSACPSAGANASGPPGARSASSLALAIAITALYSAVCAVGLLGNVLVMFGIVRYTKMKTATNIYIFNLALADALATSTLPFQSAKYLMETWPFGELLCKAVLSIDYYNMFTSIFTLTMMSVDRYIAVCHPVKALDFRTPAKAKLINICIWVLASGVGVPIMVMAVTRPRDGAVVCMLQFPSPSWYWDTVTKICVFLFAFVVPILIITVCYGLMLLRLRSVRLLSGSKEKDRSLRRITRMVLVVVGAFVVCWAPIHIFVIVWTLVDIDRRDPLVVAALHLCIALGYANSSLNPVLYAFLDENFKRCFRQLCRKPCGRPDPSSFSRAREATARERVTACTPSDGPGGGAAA
The experiment in a line: DOR [35S]GTPγS binding assay. It is filed as biochemical. The following applies: Tables A, B. The protocol:
as §1

Series [13] can be described thus: Self-administration Studies, Abuse liability. The following applies: in vivo.
Series [14] in a line: Protein Binding (plasma), rat.
The target of series [15] is CYP2C19 (Homo sapiens, UniProt P33261). Kind of series: CYP450 enzyme testing, CYP2C19.
Sequence of CYP2C19 (P33261 whole entry): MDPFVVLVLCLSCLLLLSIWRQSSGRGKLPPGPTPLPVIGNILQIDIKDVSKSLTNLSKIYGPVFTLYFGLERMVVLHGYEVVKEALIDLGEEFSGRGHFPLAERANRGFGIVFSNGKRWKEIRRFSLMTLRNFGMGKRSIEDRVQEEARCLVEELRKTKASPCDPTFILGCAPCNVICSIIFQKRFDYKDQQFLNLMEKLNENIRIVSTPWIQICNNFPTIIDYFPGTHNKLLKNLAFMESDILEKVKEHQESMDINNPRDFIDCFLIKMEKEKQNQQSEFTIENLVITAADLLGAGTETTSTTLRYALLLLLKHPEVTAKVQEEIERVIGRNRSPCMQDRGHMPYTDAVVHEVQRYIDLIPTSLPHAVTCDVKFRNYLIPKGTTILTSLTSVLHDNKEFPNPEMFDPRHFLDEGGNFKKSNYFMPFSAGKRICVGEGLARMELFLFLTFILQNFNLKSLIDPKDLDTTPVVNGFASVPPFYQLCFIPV

SMILES strings stand for the structures. Where a name gives a salt, the structure may show the parent alone. Read-outs that look alike come from different tables or passages of the source.

Sequence of MOR (P42866 whole entry): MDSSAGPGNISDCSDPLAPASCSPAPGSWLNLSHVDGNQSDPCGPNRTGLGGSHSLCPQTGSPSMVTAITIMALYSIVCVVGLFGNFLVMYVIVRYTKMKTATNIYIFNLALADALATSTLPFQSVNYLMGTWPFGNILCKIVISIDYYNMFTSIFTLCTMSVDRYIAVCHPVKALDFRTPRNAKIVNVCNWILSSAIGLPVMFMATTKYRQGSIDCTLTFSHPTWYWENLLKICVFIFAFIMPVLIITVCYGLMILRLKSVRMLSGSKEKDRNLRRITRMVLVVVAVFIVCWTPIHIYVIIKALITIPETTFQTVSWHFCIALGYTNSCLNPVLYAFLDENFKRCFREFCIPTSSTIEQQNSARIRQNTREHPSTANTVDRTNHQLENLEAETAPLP

On to `O=C(N[C@H]1CC[C@@]2(O)[C@H]3Cc4ccc(O)c5c4[C@@]2(CCN3CC2CC2)[C@H]1O5)c1nccs1` [NTZ, 17-Cyclopropylmethyl-3,14β-dihydroxy-4,5α-epoxy-6α-(2′-thiazolylcarboxamido)morphinan hydrochloride], for which the “35S-GTP[γS]-Binding MOR Efficacy (% max of DAMGO)” value in series [1] was determined as 11.29 ± 1.30%. The EC50 was 2.16 ± 0.38 nM in series [1] (read-out: 35S-GTP[γS]-Binding MOR Potency EC50); 3.83 ± 0.62 nM in series [7] (Tables A, B, read-out: 35S-GTP[γS]-Binding KOR Potency EC50); 23.6 ± 4.29 nM in series [12] (read-out: 35S-GTP[γS]-Binding DOR Potency EC50). Further, the AMES testing result in series [2] is on record as “No toxicity shown”. Also, the “Self-administration Studies Food vs Drug” value in [3] was “reduce heroin choice and increase food choice in a”. In addition, the half-life in series [4] and in [6] was > 1 h each time. In addition, the values for the free fraction (fraction unbound) in series [5] and in series [14] were 0.56 and 0.4, respectively. Further, the Emax in series [7] stood at 23.5 ± 2.03%. For the same molecule, the “CYP2D6 inhibition (in words)” value in [8] (human) was “potent at CYP2D6 inhibition”. In addition, the hM4 binding result in [9] is “hM4 (67% at 10 uM)”. Also, in series [10], the “Withdrawal study: wet-dog shakes, escape jumps, paw tremors” value was “fewer symptoms than naloxone at the same dose”. The “Withdrawal study: precipitation of withdrawal syndromes” value in [10] (up to 0.1 mg/kg) is on record as “No significant precipitation of withdrawal syndromes”. Besides, the Solubility entry in series [11] is on record as “Solubility: DMSO, H2O”. Moreover, in series [12], the “35S-GTP[γS]-Binding DOR Efficacy (% max of SNC80)” value was determined as 46.51 ± 2.17%. The “Self-administration Studies Abuse liability” value in series [13] is recorded as “No significant abuse liability”.
As to `O=C(N[C@H]1CC[C@@]2(O)[C@H]3Cc4ccc(O)c5c4[C@@]2(CCN3CC2CC2)[C@H]1O5)c1cccs1` [Example 1 compound 25, 17-Cyclopropylmethyl-3,14β-dihydroxy-4,5α-epoxy-6α-(2′-thienylcarboxamido)morphinan hydrochloride], in series [1] (35S-GTP[γS]-Binding MOR Potency EC50, nM), the concentration for a half-maximal effect (EC50) is 0.49 ± 0.09 nM. For the same molecule, the “35S-GTP[γS]-Binding MOR Efficacy (% max of DAMGO)” value in series [1] is 21.81 ± 6.17%. In addition, in [2], the AMES testing entry is “No toxicity shown”. Also, in series [4], the half-life was > 1 h. For the same molecule, in series [5], the free fraction (fraction unbound) is 0.63. In [6], the half-life is > 1 h. In [7], the Emax amounted to 50.6 ± 0.95%. Moreover, in series [9], the inhibitory constant (Ki) is 4900 nM and the hM4 binding is listed as 61%. Further, in [10], the “withdrawal symptoms (wet-dog shakes, escape jumps, paw tremors)” value is “significantly fewer wet-dog shakes, escape jumps, and paw tremors”; the “withdrawal symptoms at higher doses” value is “started showing wet dog shakes and jumps at a 5 mg/kg dose”. The “Withdrawal study: wet-dog shakes, escape jumps, paw tremors at high dose” value in series [10] (high dose (5 to 20 mg/kg), compared to naloxone at 1 mg/kg, listed as NAT, hydrochloride) is recorded as “lower compared to naloxone at 1 mg/kg”. In addition, the Solubility entry in [11] is “Solubility: DMSO, H2O”. Moreover, in series [12], the “35S-GTP[γS]-Binding DOR Efficacy (% max of SNC80)” value turned out to be 48.58 ± 3.41%. The fraction unbound in series [14] worked out at 0.36. Besides, the CYP2C19 inhibition entry in series [15] is reported as “Only CYP2C19 inhibition (~3 uM)”.
In the case of `O=C(N[C@H]1CCC2(O)C3Cc4ccc(O)c5c4[C@@]2(CCN3CC2CC2)[C@H]1O5)c1ccc[nH]1` (stereo partly drawn) [Example 1 compound 1, 17-Cyclopropylmethyl-3,14β-dihydroxy-4,5α-epoxy-6a-[(2′-pyrrolyl)carboxamido]morphinan hydrochloride], the “35S-GTP[γS]-Binding MOR Efficacy (% max of DAMGO)” value in [1] amounted to 12.11 ± 2.64%. Besides, the “Self-administration Studies Food vs Drug” value in [3] is “reduce heroin choice and increase food choice”. The half-life in series [4] and in [6] was > 1 h each time. In addition, the fraction unbound in series [5] and in series [14] was 0.43 each time. In addition, in series [7], the Emax stood at 43.4 ± 1.36%. Besides, the “CYP2D6 inhibition (in words)” value in series [8] (human) was “Only moderate at CYP2D6 and CYP2C19”. In addition, the “Withdrawal study: wet-dog shakes, escape jumps, paw tremors” value in series [10] was “At 1 mg/kg dose of NAY produced NO wet-dog”. In addition, the “35S-GTP[γS]-Binding DOR Efficacy (% max of SNC80)” value in series [12] is listed as 50.94 ± 5.26%. The “Self-administration Studies Abuse liability” value in series [13] is “No significant abuse liability”. In addition, the “CYP2C19 inhibition (in words)” value in series [15] (human) is “Only moderate at CYP2D6 and CYP2C19”.
Take `O=C(N[C@H]1CC[C@@]2(O)[C@H]3Cc4ccc(O)c5c4[C@@]2(CCN3CC2CC2)[C@H]1O5)c1ccsc1` [Example 1 compound 31, 17-Cyclopropylmethyl-3,14β-dihydroxy-4,5α-epoxy-6α-(3′-thienylcarboxamido)morphinan hydrochloride]: the “35S-GTP[γS]-Binding MOR Efficacy (% max of DAMGO)” value in series [1] was 30.66 ± 4.44%. The AMES testing result in [2] is “No toxicity shown”. The “Self-administration Studies Food vs Drug” value in series [3] was “reduce heroin choice and increase food choice in a”. Further, the half-life in series [4] is > 1 h. In [5], this molecule came in with a fraction unbound of 0.4. The molecule also registered a half-life in [6] of 0.733 h. Moreover, the “CYP2D6 inhibition (in words)” value in series [8] is “Only moderate at CYP2D6 and CYP2C19”. The hM4 binding entry in [9] is listed as “hM4 (65% at 10 uM)”. Besides, in [10], the “Withdrawal study: wet-dog shakes, escape jumps, paw tremors” value is given as “produced significantly fewer wet-dog shakes,”; the “withdrawal symptoms (wet-dog shakes, escape jumps, paw tremors)” value is “significantly fewer wet-dog shakes, escape jumps, and paw tremors”; the “withdrawal symptoms at higher doses” value is “started showing wet dog shakes and jumps at a 5 mg/kg dose”. The Solubility entry in [11] is given as “Solubility: DMSO, H2O”. Further, the “35S-GTP[γS]-Binding DOR Efficacy (% max of SNC80)” value in [12] is listed as 58.5 ± 3.13%. In [13], the “Self-administration Studies Abuse liability” value is recorded as “No significant abuse liability”. Also, in series [14], the fraction unbound was 0.44. In [15], the “CYP2C19 inhibition (in words)” value is “Only moderate at CYP2D6 and CYP2C19”.
